Reference: patent US20030199571A1, “(Hetero) Bicyclymethanesulfonylamino-substituted hydroxamic acid derivatives” (priority 1999, published 2003)
pIC50: −log10 of the molar value.

The compounds below were run against T1, human recombinant collagenase (Homo sapiens, UniProt P03956) (assay: Collagenase inhibition assay (Cawston and Barrett)). Conditions: acetylated 3H type 1 bovine collagen, 37° C., 18 h.
T1 construct: made in house; host or cells: E. coli
T1 sequence (P03956 100-469): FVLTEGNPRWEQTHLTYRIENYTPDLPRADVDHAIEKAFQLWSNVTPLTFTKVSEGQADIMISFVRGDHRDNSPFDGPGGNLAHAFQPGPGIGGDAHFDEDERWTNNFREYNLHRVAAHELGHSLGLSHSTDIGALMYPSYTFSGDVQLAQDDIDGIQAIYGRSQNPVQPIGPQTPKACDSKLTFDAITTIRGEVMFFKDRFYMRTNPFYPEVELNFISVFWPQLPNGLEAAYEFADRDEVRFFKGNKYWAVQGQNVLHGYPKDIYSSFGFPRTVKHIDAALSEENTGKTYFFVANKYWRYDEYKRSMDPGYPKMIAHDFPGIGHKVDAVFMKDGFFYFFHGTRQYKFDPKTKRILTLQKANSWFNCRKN
Type: biochemical
Experimental: Procedure 2: The ability of test compounds to inhibit collagenase was investigated using the following procedure.
Collagenase Inhibition Assay:
The potency of compounds to act as inhibitors of collagenase was determined by the method of Cawston and Barrett (Anal. Biochem. 99, 340-345, 1979), hereby incorporated by reference, whereby a 1 mM solution of the inhibitor being tested or dilutions thereof, was incubated at 37° C. for 18 h with collagen and human recombinant collagenase, from synovial fibroblasts cloned, expressed and purified from E. coli, (buffered with 150 mM Tris, pH 7.6, containing 15 mM calcium chloride, 0.05% Brij 35, 200 mM sodium chloride and 0.02% sodium azide). The collagen was acetylated ^3H type 1 bovine collagen prepared by the method of Cawston and Murphy (methods in Enzymology 80, 711,1981) The samples were centrifuged to sediment undigested collagen and an aliquot of the radioactive supernatant removed for assay on a scintillation counter as a measure of hydrolysis. The collagenase activity in the presence of 1 mM inhibitor, or dilution thereof, was compared to activity in a control devoid of inhibitor and the results reported as that concentration effecting 50% of the collagenase (IC50).

Row | Structure (SMILES) | pIC50
1 | O=C(NO)[C@@H](Cc1ccccc1)NS(=O)(=O)Cc1ccc2ccccc2c1 [Example 5] | ≤ 5.00
2 | CC(C)(C)C[C@@H](NS(=O)(=O)Cc1ccc2ccccc2c1)C(=O)NO [Example 6] | ≤ 5.00
3 | O=C(NO)[C@@H](CC1CCCCC1)NS(=O)(=O)Cc1ccc2ccccc2c1 [Example 9] | ≤ 5.00
4 | O=C(NO)[C@H](NS(=O)(=O)Cc1ccc2ccccc2c1)c1ccc(O)cc1 [Example 12] | ≤ 5.00
5 | O=C(NO)[C@@H](Cc1csc2ccccc12)NS(=O)(=O)Cc1ccc2ccccc2c1 [Example 14] | ≤ 5.00
6 | O=C(NO)[C@H](NS(=O)(=O)Cc1ccc2sccc2c1)c1ccccc1 [Example 28, (R)-2-(Benzo[b]thiophen-5-ylmethanesulfonylamino)-N-hydroxy-2-phenylacetamide] | ≤ 5.00
7 | O=C(NO)[C@H](NS(=O)(=O)C[C@@H]1CCc2ccccc2C1)c1ccccc1 [Example 29, (R)-2-Phenyl-2-[(R)-1-(1,2,3,4-tetrahydronaphthalen-2-yl)methanesulfonylamino]-N-hydroxyacetamide] | ≤ 5.00
8 | O=C(NO)[C@@H](Cc1c[nH]c2ccccc12)NS(=O)(=O)Cc1ccc2sccc2c1 [Example 31, (R)-2-(Benzo[b]thiophen-5-ylmethanesulfonylamino)-N-hydroxy-3-(1H-indol-3-yl) propionamide.] | ≤ 5.00
9 | O=C(NO)[C@H](NS(=O)(=O)Cc1ccc2sccc2c1)c1ccc(O)cc1 [Example 33] | ≤ 5.00
10 | O=C(NO)[C@@H](CCc1ccccc1)NS(=O)(=O)Cc1ccc2sccc2c1 [Example 38, (R)-2-(Benzo[b]thiophen-5-ylmethanesulfonylamino)-N-hydroxy-4-phenyl-butyramide] | ≤ 5.00
11 | CC(C)(C)C[C@@H](NS(=O)(=O)Cc1ccc2sccc2c1)C(=O)NO [Example 42] | ≤ 5.00
12 | CC(C)(C)[C@@H](NS(=O)(=O)Cc1ccc2sccc2c1)C(=O)NO [Example 43] | ≤ 5.00
13 | CC(C)c1ccc([C@@H](NS(=O)(=O)Cc2ccc3sccc3c2)C(=O)NO)cc1 [Example 56, (R)-2-(Benzo[b]thiophen-5-ylmethanesulfonylamino)-2-(4-isopropylphenyl)-N-hydroxy-acetamide] | ≤ 5.00
14 | O=C(NO)[C@@H](CNS(=O)(=O)Cc1ccccc1)NS(=O)(=O)Cc1ccc2sccc2c1 [Example 69, (R)-2-(Benzo[b]thiophen-5-ylmethanesulfonylamino)-N-hydroxy-3-(phenylmethanesulfonylamino)-propionamide] | ≤ 5.00
